Measured values reported in EPA's ToxValDB 9.5 (doi:10.2903/j.efsa.2008.139r).

Assays:
Apis mellifera = details: acute, mortality
Canidae = details: oral, Dog Other, organ weight
Daphnia magna = details: chronic/long-term
Lepomis macrochirus = details: acute; mortality
Oncorhynchus mykiss = details: chronic/long-term
Oryctolagus sp. = details: developmental; development
Perdix sp. = details: acute; oral; unspecified; mortality
Tagia sp. = details: acute; duration: 14 days; mortality
Typhlodromus pyri = test: LR50; higher = less toxic; details: not reported; mortality

`CCO/N=C(\CC)C1=C(O)CC(c2c(C)cc(C)cc2C)CC1=O` (stereo unspecified) [Tralkoxydim] showed an LD50 (Apis mellifera; dermal) greater than 100 µg/piece, an LD50 (Apis mellifera; oral, unspecified) greater than 117 µg/piece and an NOAEL (Canidae; chronic, duration: 1 years) of 0.5 mg/kg-day. For the same compound, the NOAEL (Canidae; subchronic, duration: 90 days) was 0.5 mg/kg-day, the LC50 (Colinus virginianus; acute, oral, diet, mortality) was 1020 mg/kg-day and the NOEC (Colinus virginianus; reproduction developmental) was 14.3 mg/kg-day. It also gave an NOEC (Daphnia magna) of 2.1 mg/L, an LC50 (Lepomis macrochirus) greater than 6.1 µg/mL and an NOEC (Oncorhynchus mykiss) of 4.6 mg/L. It also gave an NOEC (Oryctolagus sp.) of 20 mg/kg-day, an LD50 (Perdix sp.) of 2020 mg/kg-day and an LD50 (Rattus norvegicus; acute, oral, mortality) of 934 mg/kg-day. It also gave an NOAEL (Rattus norvegicus; developmental, development) of 1 mg/kg-day, an NOAEL (Rattus norvegicus; reproduction developmental, body weight) of 18.2 mg/kg-day and an LC50 (Tagia sp.) greater than 1000 mg/kg. The LR50 (Typhlodromus pyri) was greater than 450 g/ha.
